According to US9040518B2, “Chemical compounds” (GlaxoSmithKline LLC, priority 2010, dated 2015):
Counter-ions that a name gives are not always drawn.

target: ileal bile acid cotransporter (iBAT) (Homo sapiens (Human), UniProt Q12908); assay: Human iBAT inhibition: [3H]-taurocholate uptake into HEK293 cells expressing human iBAT; type: cell-based; details: HEK293 cells transduced with human iBAT Bacmam virus, 90 minutes at ambient temperature, mean of at least 2 datapoints
Experimental: Method for Determination of Human iBAT Inhibition:
In preparation for measurement of bile acid uptake into cells expressing the ileal bile acid cotransporter (iBAT), HEK293 cells were cultured in DMEM/F12 supplemented with 10% FBS. Twenty four hours prior to running an experiment, cells were harvested when at a confluence of 80-90%. Cells were seeded in poly-d-lysine coated plates at 50,000 cells per well, and human iBAT Bacmam virus was added such that each well contains 3.67×10e6 pfu (73.4pfu/cell). Each assay plate was covered with Breathe Easy Seal and placed in an incubator for 24 hours to allow expression of the transporter.
On the day of the uptake experiment, 10 mM HEPES was added to Hank's Balanced Salt Solution, and the pH was adjusted to 7.4 with TRIS (HBSSH). The assay buffer was prepared by adding […] [^3H]-taurocholate and 10 μM cold taurocholate to room temperature HBSSH. A separate washing buffer was prepared by adding 10 μM cold taurocholate to HBSSH (˜30 ml per assay plate) and placed on ice. Using 100% DMSO, 8 point, 3-fold dilution curves for each test compound was prepared starting at 200 μM. Similarly, an 8 point dose response curve was prepared of the control compound [(3R,5R)-3-butyl-3-ethyl-7,8-bis(methyloxy)-5-phenyl-2,3,4,5-tetrahydro-1,4-benzothiazepine 1,1-dioxide (Brieaddy, L. E. WO9605188, 1996)] starting at 1.8 mM. Drug plates were created by adding 3 μL of each concentration to a v-bottom 96-well plate then diluted 60-fold with 177 μL of assay buffer. Plates were removed from the incubator and allowed to cool to ambient temperature. Media was aspirated, and wells were washed once with 300 μL HBSSH. 50 μL of each dose response curve concentration was added in triplicate by column to the assay plates, reserving column 10 for control (assay buffer+1.67% DMSO) and columns 11 and 12 for the control compound. Plates were incubated at ambient temperature for 90 minutes then the plates were aspirated then washed 1× with 300 μL of wash buffer. 220 μL of Microscint 20 was added to each well, and the plates were sealed. The amount of [^3H]-taurocholate in cell lysate was quantitated using a microplate scintillation counter on the following day.
IC50's can be generated using the formula, y=(Vmax*x^n)/(K^n+x^n).

Sequence of ileal bile acid cotransporter (iBAT) (Q12908 whole entry): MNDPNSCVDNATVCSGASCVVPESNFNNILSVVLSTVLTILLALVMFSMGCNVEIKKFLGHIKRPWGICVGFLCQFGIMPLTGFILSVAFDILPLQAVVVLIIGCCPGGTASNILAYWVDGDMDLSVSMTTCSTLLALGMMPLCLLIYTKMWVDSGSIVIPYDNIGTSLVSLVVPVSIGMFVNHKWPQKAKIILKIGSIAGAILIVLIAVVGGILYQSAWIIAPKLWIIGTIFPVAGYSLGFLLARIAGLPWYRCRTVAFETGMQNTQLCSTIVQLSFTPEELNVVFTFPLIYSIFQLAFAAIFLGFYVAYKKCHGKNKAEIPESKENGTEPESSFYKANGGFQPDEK

First: CCCC[C@]1(CC)CS(=O)(=O)c2cc(CN(C)CCC(=O)O)c(OC)cc2[C@@H](c2ccccc2)N1 [Example 29, N-{[(3R,5R)-3-butyl-3-ethyl-7-(methyloxy)-1,1-dioxido-5-phenyl-2,3,4,5-tetrahydro-1,4-benzothiazepin-8-yl]methyl}-N-methyl-β-alanine trifluoroacetate salt]
Second: CCCC[C@]1(CC)CS(=O)(=O)c2cc(CNCC(=O)O)c(OC)cc2[C@@H](c2ccccc2)N1 [Example 25, N-{[(3R,5R)-3-butyl-3-ethyl-7-(methyloxy)-1,1-dioxido-5-phenyl-2,3,4,5-tetrahydro-1,4-benzothiazepin-8-yl]methyl}glycine]
The IC50 of the first is 61-fold higher: 0.367 µM for the first, 0.006 µM for the second.

`CCCC[C@]1(CC)CS(=O)(=O)c2cc(CNC(=O)CNC(CC(=O)O)CC(=O)O)c(OC)cc2[C@@H](c2ccccc2)N1` [Example 41, 3-{[2-({[(3R,5R)-3-butyl-3-ethyl-7-(methyloxy)-1,1-dioxido-5-phenyl-2,3,4,5-tetrahydro-1,4-benzothiazepin-8-yl]methyl}amino)-2-oxoethyl]amino}pentanedioic acid trifluoroacetate salt] and `CCCC[C@]1(CC)CS(=O)(=O)c2cc(CCC(=O)NC(CC(=O)O)CC(=O)O)c(OC)cc2[C@@H](c2ccccc2)N1` [Example 17, 3-({3-[(3R,5R)-3-butyl-3-ethyl-7-(methyloxy)-1,1-dioxido-5-phenyl-2,3,4,5-tetrahydro-1,4-benzothiazepin-8-yl]propanoyl}amino)pentanedioic acid trifluoroacetate salt] are the same in IC50: 3.33 µM for the first, 3.33 µM for the second.

Compared with `CCCC[C@]1(CC)CS(=O)(=O)c2cc(CCC(=O)NC(C)(C)C(=O)O)c(OC)cc2[C@@H](c2ccccc2)N1` [Example 16, N-{3-[(3R,5R)-3-butyl-3-ethyl-7-(methyloxy)-1,1-dioxido-5-phenyl-2,3,4,5-tetrahydro-1,4-benzothiazepin-8-yl]propanoyl}-2-methylalanine], `CCCC[C@]1(CC)CS(=O)(=O)c2cc(C(=O)NCC(C)(C)C(=O)O)c(OC)cc2[C@@H](c2ccccc2)N1` [Example 1, 3-({[(3R,5R)-3-butyl-3-ethyl-7-(methyloxy)-1,1-dioxido-5-phenyl-2,3,4,5-tetrahydro-1,4-benzothiazepin-8-yl]carbonyl}amino)-2,2-dimethylpropanoic acid] is 23-fold lower in IC50: 0.731 µM for the first, 0.032 µM for the second. The second is the more potent here.

`CCCC[C@]1(CC)CS(=O)(=O)c2cc(CCCS(=O)(=O)O)c(OC)cc2[C@@H](c2ccccc2)N1` [Example 20, 3-[(3R,5R)-3-butyl-3-ethyl-7-(methyloxy)-1,1-dioxido-5-phenyl-2,3,4,5-tetrahydro-1,4-benzothiazepin-8-yl]-1-propanesulfonic acid] and `CCCC[C@]1(CC)CS(=O)(=O)c2cc(CS(=O)(=O)O)c(OC)cc2[C@@H](c2ccccc2)N1` [Example 5, [3R,5R)-3-butyl-3-ethyl-7-(methyloxy)-1,1-dioxido-5-phenyl-2,3,4,5-tetrahydro-1,4-benzothiazepin-8-yl]methanesulfonic acid trifluoroacetate salt] are the same in IC50: 0.004 µM for the first, 0.004 µM for the second.

First: CCCCC1(CCCC)CS(=O)(=O)c2cc(CNC(CC(=O)O)CC(=O)O)c(OC)cc2C(c2ccccc2)N1 (stereo not shown) [Example 65, 3-({[3,3-dibutyl-7-(methyloxy)-1,1-dioxido-5-phenyl-2,3,4,5-tetrahydro-1,4-benzothiazepin-8-yl]methyl}amino)pentanedioic acid trifluoroacetate salt]
Second: CCCC[C@]1(CC)CS(=O)(=O)c2cc(CN[C@H](CC(=O)O)C(=O)O)c(OC)cc2[C@@H](c2ccccc2)N1 [Example 28, N-{[(3R,5R)-3-butyl-3-ethyl-7-(methyloxy)-1,1-dioxido-5-phenyl-2,3,4,5-tetrahydro-1,4-benzothiazepin-8-yl]methyl}-D-aspartic acid trifluoroacetate salt]
The IC50 of the first is 6.1-fold higher: 0.337 µM for the first, 0.055 µM for the second. The second is the more potent here.

Going from `CCCC[C@]1(CC)CS(=O)(=O)c2cc(CN(CCS(=O)(=O)O)CCS(=O)(=O)O)c(OC)cc2[C@@H](c2ccccc2)N1` [Example 36, 2,2′-({[(3R,5R)-3-butyl-3-ethyl-7-(methyloxy)-1,1-dioxido-5-phenyl-2,3,4,5-tetrahydro-1,4-benzothiazepin-8-yl]methyl}imino)diethanesulfonic acid trifluoroacetate salt] to `CCCC[C@]1(CC)CS(=O)(=O)c2cc(CNC(=O)CCS(=O)(=O)O)c(OC)cc2[C@@H](c2ccccc2)N1` [Example 42, 3-({[(3R,5R)-3-butyl-3-ethyl-7-(methyloxy)-1,1-dioxido-5-phenyl-2,3,4,5-tetrahydro-1,4-benzothiazepin-8-yl]methyl}amino)-3-oxo-1-propanesulfonic], the IC50 falls from 0.365 µM to 0.128 µM (2.9-fold). The second is the more potent here.

`CCCC[C@]1(CC)CS(=O)(=O)c2cc(CNCCP(=O)(O)OCC)c(OC)cc2[C@@H](c2ccccc2)N1` [Example 34, ethyl hydrogen [2-({[(3R,5R)-3-butyl-3-ethyl-7-(methyloxy)-1,1-dioxido-5-phenyl-2,3,4,5-tetrahydro-1,4-benzothiazepin-8-yl]methyl}amino)ethyl]phosphonate trifluoroacetate salt] and `CCCC[C@]1(CC)CS(=O)(=O)c2cc(CNCCP(=O)(O)O)c(OC)cc2[C@@H](c2ccccc2)N1` [Example 33, [2-({[(3R,5R)-3-butyl-3-ethyl-7-(methyloxy)-1,1-dioxido-5-phenyl-2,3,4,5-tetrahydro-1,4-benzothiazepin-8-yl]methyl}amino)ethyl]phosphonic acid trifluoroacetate salt] are within 1.5-fold of each other in IC50: 2.79 µM for the first, 2.7 µM for the second.

Compared with `CCCC[C@]1(CC)CS(=O)(=O)c2cc(CNCP(=O)(O)O)c(OC)cc2[C@@H](c2ccccc2)N1` [Example 62, [({[(3R,5R)-3-butyl-3-ethyl-7-(methyloxy)-1,1-dioxido-5-phenyl-2,3,4,5-tetrahydro-1,4-benzothiazepin-8-yl]methyl}amino)methyl]phosphonic acid trifluoroacetate salt], `CCCC[C@]1(CC)CS(=O)(=O)c2cc(CN[C@@H](CO)C(=O)O)c(OC)cc2[C@@H](c2ccccc2)N1` [Example 52, N-{[(3R,5R)-3-butyl-3-ethyl-7-(methyloxy)-1,1-dioxido-5-phenyl-2,3,4,5-tetrahydro-1,4-benzothiazepin-8-yl]methyl}-L-serine bis-ammonium salt] is 66-fold lower in IC50: 3.9 µM for the first, 0.059 µM for the second.

Going from `CCCC[C@]1(CC)CS(=O)(=O)c2cc(CN[C@@H](CCCCN)C(=O)O)c(OC)cc2[C@@H](c2ccccc2)N1` [Example 58, N^2-{[(3R,5R)-3-butyl-3-ethyl-7-(methyloxy)-1,1-dioxido-5-phenyl-2,3,4,5-tetrahydro-1,4-benzothiazepin-8-yl]methyl}-L-lysine ammonium salt] to `CCCC[C@]1(CC)CS(=O)(=O)c2cc(CN[C@H](C(=O)O)[C@@H](C)O)c(OC)cc2[C@@H](c2ccccc2)N1` [Example 56, N-{[(3R,5R)-3-butyl-3-ethyl-7-(methyloxy)-1,1-dioxido-5-phenyl-2,3,4,5-tetrahydro-1,4-benzothiazepin-8-yl]methyl}-L-threonine ammonium salt], the IC50 falls from 1.46 µM to 0.425 µM (3.4-fold).

Compared with `CCCC[C@]1(CC)CS(=O)(=O)c2cc(CNC(CC(=O)O)CC(=O)O)c(OC)cc2[C@@H](c2ccccc2)N1O` [Example 50, 3-({[(3R,5R)-3-butyl-3-ethyl-4-hydroxy-7-(methyloxy)-1,1-dioxido-5-phenyl-2,3,4,5-tetrahydro-1,4-benzothiazepin-8-yl]methyl}amino)pentanedioic acid trifluoroacetate salt], `CCCC[C@]1(CC)CS(=O)(=O)c2cc(CCCO)c(OC)cc2[C@@H](c2ccccc2)N1` [Example 19, 3-[(3R,5R)-3-butyl-3-ethyl-7-(methyloxy)-1,1-dioxido-5-phenyl-2,3,4,5-tetrahydro-1,4-benzothiazepin-8-yl]-1-propanol] is 12-fold higher in IC50: 0.051 µM for the first, 0.622 µM for the second.

First: CCCC[C@]1(CC)CS(=O)(=O)c2cc(CN3CCC[C@@H]3C(=O)O)c(OC)cc2[C@@H](c2ccccc2)N1 [Example 57, 1-{[(3R,5R)-3-butyl-3-ethyl-7-(methyloxy)-1,1-dioxido-5-phenyl-2,3,4,5-tetrahydro-1,4-benzothiazepin-8-yl]methyl}-D-proline ammonium salt]
Second: CCCC[C@]1(CC)CS(=O)(=O)c2cc(CN(CP(=O)(O)O)CP(=O)(O)OCC)c(OC)cc2[C@@H](c2ccccc2)N1 [Example 61, [({[(3R,5R)-3-butyl-3-ethyl-7-(methyloxy)-1,1-dioxido-5-phenyl-2,3,4,5-tetrahydro-1,4-benzothiazepin-8-yl]methyl}{[(ethyloxy)(hydroxy)phosphoryl]methyl}amino)methyl]phosphonic acid triammonium salt]
The IC50 of the first is 4.5-fold lower: 0.751 µM for the first, 3.36 µM for the second. The first is the more potent here.
